Source: patent US9113629B2, “4-amino-6-(4-substituted-phenyl)-picolinates and 6-amino-2-(4-substituted-phenyl)-pyrimidine-4-carboxylates and their use as herbicides” (DOW AGROSCIENCES LLC, priority 2013, dated 2015)
Where two headings read alike, the source gives them in different places.

How the values were obtained:
[1] = test system: Key Broadleaf Weed and Crop Species; assay: Post-emergent Test II herbicidal activity (Table 5); format: in vivo; settings: post-emergence, 336 h, post-emergent, 14 days after application; for pest or weed control at 70 g/ha: 70 g ai/ha; for pest or weed control at 140 g/ha: 140 g ai/ha
Procedure, shortened: (§1)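 Test species were raised 7–21 d under greenhouse conditions until reaching the first or second true leaf, sprayed with formulated compound at 187 L/ha, and kept subirrigated to avoid wash-off. Fourteen days later, damage was rated visually on a 0–100% scale against untreated plants.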

[2] = test system: Key Grass and Sedge Weeds as well as Grass Crops; assay: Post-emergent Test II herbicidal activity (Table 6); format: in vivo; settings: post-emergence, 336 h; for pest or weed control at 70 g/ha: application rate 70 g ai/ha; for pest or weed control at 140 g/ha: application rate 140 g ai/ha
Procedure, shortened: as §1

[3] = ABUTH: velvetleaf (Abutilon theophrasti), read-out: Visual Growth Reduction (%) 14 Days After Application ABUTH
[4] = AMARE: redroot pigweed (Amaranthus retroflexus), read-out: Visual Growth Reduction (%) 14 Days After Application AMARE
[5] = BRSNN: oilseed-rape, canola (Brassica napus), read-out: Visual Growth Reduction (%) 14 Days After Application BRSNN
[6] = CHEAL: lambsquarters (Chenopodium album), read-out: Visual Growth Reduction (%) 14 Days After Application CHEAL
[7] = EPHHL: wild poinsettia (Euphorbia heterophylla), read-out: Visual Growth Reduction (%) 14 Days After Application EPHHL
[8] = HELAN: sunflower (Helianthus annuus), read-out: Visual Growth Reduction (%) 14 Days After Application HELAN
[9] = VIOTR: wild pansy (Viola tricolor), read-out: Visual Growth Reduction (%) 14 Days After Application VIOTR
[10] = Triticum aestivum, TRZSS (wheat), read-out: Visual Growth Reduction (%) 14 Days After Application, TRZSS
[11] = CYPES: yellow nutsedge (Cyperus esculentus), read-out: Visual Growth Reduction (%) 14 Days After Application, CYPES
[12] = DIGSA: crabgrass (Digitaria sanguinalis), read-out: Visual Growth Reduction (%) 14 Days After Application, DIGSA
[13] = ECHCG: barnyardgrass (Echinochloa crus-galli), read-out: Visual Growth Reduction (%) 14 Days After Application, ECHCG
[14] = ORYSA: rice (Oryza sativa), read-out: Visual Growth Reduction (%) 14 Days After Application, ORYSA
[15] = SETFA: giant foxtail (Setaria faberi), read-out: Visual Growth Reduction (%) 14 Days After Application, SETFA
[16] = SORVU: grain sorghum (Sorghum vulgare), read-out: Visual Growth Reduction (%) 14 Days After Application, SORVU
[17] = ZEAMX: maize, corn (Zea mays), read-out: Visual Growth Reduction (%) 14 Days After Application, ZEAMX

Compound	pest or weed control at 70 g/ha [1, 3] [%]	pest or weed control at 140 g/ha [1, 3] [%]	pest or weed control at 70 g/ha [1, 4] [%]	pest or weed control at 140 g/ha [1, 4] [%]	pest or weed control at 70 g/ha [1, 5] [%]	pest or weed control at 140 g/ha [1, 5] [%]	pest or weed control at 70 g/ha [1, 6] [%]	pest or weed control at 140 g/ha [1, 6] [%]	pest or weed control at 70 g/ha [1, 7] [%]	pest or weed control at 140 g/ha [1, 7] [%]	pest or weed control at 70 g/ha [1, 8] [%]	pest or weed control at 140 g/ha [1, 8] [%]	pest or weed control at 70 g/ha [1, 9] [%]	pest or weed control at 140 g/ha [1, 9] [%]	pest or weed control at 70 g/ha [2, 10] [%]	pest or weed control at 140 g/ha [2, 10] [%]	pest or weed control at 70 g/ha [2, 11] [%]	pest or weed control at 140 g/ha [2, 11] [%]	pest or weed control at 70 g/ha [2, 12] [%]	pest or weed control at 140 g/ha [2, 12] [%]	other results
COC(=O)c1nc(-c2ccc(OC(F)F)cc2)c(C)c(N)c1Cl [Compound 111, Methyl 4-amino-3-chloro-6-(4-(difluoromethoxy)phenyl)-5-methylpicolinate]	30 to 44	60 to 74	0 to 29	0 to 29	0 to 29	0 to 29	30 to 44	60 to 74	0 to 29	0 to 29	75 to 84	85 to 94	0 to 29	0 to 29	0 to 29	0 to 29	0 to 29	0 to 29	0 to 29	0 to 29	pest or weed control at 70 g/ha [2, 13]: 0 to 29%; pest or weed control at 140 g/ha [2, 13]: 0 to 29%; pest or weed control at 70 g/ha [2, 14]: 0 to 29%; pest or weed control at 140 g/ha [2, 14]: 0 to 29%; pest or weed control at 70 g/ha [2, 15]: 0 to 29%; pest or weed control at 140 g/ha [2, 15]: 0 to 29%; pest or weed control at 70 g/ha [2, 16]: 0 to 29%; pest or weed control at 140 g/ha [2, 16]: 0 to 29%; pest or weed control at 70 g/ha [2, 17]: 0 to 29%; pest or weed control at 140 g/ha [2, 17]: 0 to 29%
COC(=O)c1nc(-c2ccc(Br)c(F)c2)c(C)c(N)c1Cl [Compound 112, Methyl 4-amino-6-(4-bromo-3-fluorophenyl)-3-chloro-5-methylpicolinate]	95 to 100	95 to 100	95 to 100	95 to 100	85 to 94	85 to 94	85 to 94	85 to 94	0 to 29	0 to 29	95 to 100	95 to 100	0 to 29	0 to 29	45 to 59	60 to 74	95 to 100	95 to 100	60 to 74	60 to 74	pest or weed control at 70 g/ha [2, 13]: 60 to 74%; pest or weed control at 140 g/ha [2, 13]: 60 to 74%; pest or weed control at 70 g/ha [2, 14]: 0 to 29%; pest or weed control at 140 g/ha [2, 14]: 0 to 29%; pest or weed control at 70 g/ha [2, 15]: 85 to 94%; pest or weed control at 140 g/ha [2, 15]: 95 to 100%; pest or weed control at 70 g/ha [2, 16]: 85 to 94%; pest or weed control at 140 g/ha [2, 16]: 85 to 94%; pest or weed control at 70 g/ha [2, 17]: 60 to 74%; pest or weed control at 140 g/ha [2, 17]: 60 to 74%
